Measurements as given in patent US6693107B1, “Pharmaceutical composition useful for the treatment of tinnitus and hearing loss” (priority 1999, dated 2004).
Counter-ions that a name gives are not always drawn.

Legend:
[1] = system: tinnitus; assay: Case reports: tinnitus in patients treated with sildenafil citrate; assay type: in vivo, human
From the text: A person suffering for several years from severe tinnitus and hearing loss in their right ear had repeatedly sought medical advice and tried many alleged therapies for their tinnitus, none of which was effective. […] Other than that they are in good health and receives no medications. Recently they were prescribed sildenafil citrate for improving their sexual performance. […] A person known to have bilateral tinnitus and hearing loss for more than 20 years. Other than hypertension, for which they are treated, they are in good health. They were prescribed sildenafil citrate, 25 mg daily, for the tinnitus.

[2] = system: hearing loss; assay: Case report: hearing loss / audiogram in patient treated with sildenafil citrate; assay type: in vivo, human
From the text: A person suffering for several years from severe tinnitus and hearing loss in their right ear had repeatedly sought medical advice and tried many alleged therapies for their tinnitus, none of which was effective. […] Other than that they are in good health and receives no medications. Recently they were prescribed sildenafil citrate for improving their sexual performance. […] For instance, at frequencies of 500-1000 Hz, hearing in their right ear improved from 50-55 dB to 30 dB.

[3] = patients suffering from tinnitus

SMILES | effect on tinnitus (general statement) [1, 3] | effect on hearing loss (general statement) [2, 3] | effect on tinnitus ([1]; Example 1: person, severe tinnitus in right ear, first course of sildenafil citrate) | tinnitus status on continued treatment ([1]; Example 1: person, continues on sildenafil citrate) | return of the tinnitus after cessation of the medication ([1]; Example 1: person, intentional stop of the medication) | severity of tinnitus on rechallenge ([1]; Example 1: person, rechallenge 25 mg twice weekly) | effect on tinnitus ([1]; Example 2: person, bilateral tinnitus, 25 mg daily, starting after the 5th daily dose, persisted as long as drug taken) | audiogram (overall) ([2]; Example 1: after several months treatment) | hearing in right ear after treatment (audiogram) ([2]; Example 1: frequencies of 500-1000 Hz, after several months treatment, improved from 50-55 dB before treatment) [dB] | hearing (patient report) ([2]; Example 1: person, hearing loss in right ear, on continued treatment)
CCCc1nn(C)c2c(=O)[nH]c(-c3cc(S(=O)(=O)N4CCN(C)CC4)ccc3OCC)nc12 [sildenafil] | effective in reducing tinnitus | ameliorating hearing loss | – | – | – | – | – | – | – | –
CCCc1nn(C)c2c(=O)[nH]c(-c3cc(S(=O)(=O)N4CCN(C)CC4)ccc3OCC)nc12 [sildenafil citrate, 1-[[3-(6,7-dihydro-1-methyl-7-oxo-3-propyl-1H-pyrazolo [4,3-d]pyrimidin-5-yl)-4-ethoxyphenyl]sulfonyl]4-methylpiperazine citrate] | – | – | amelioration of the tinnitus, which eventually nearly disappeared | practically tinnitus-free | 2-3 weeks | reduced the severity of tinnitus within a week and proceeded to almost complete disappearance of the symptom | marked reduction in their tinnitus | marked improvement | 30 | significant improvement in their hearing
